Values of other authors as cited in US7435726B2, “Compositions and methods for the treatment of cancer” (Celgene Corporation, priority 2001, dated 2008).

Settings: irinotecan monotherapy, expected frequency

Abdominal colic/pain, Expected (%) Grade 1-4: 23.7%
Abdominal colic/pain, Expected (%) Grade 3-4: 2.3%
Asthenia, Expected (%) Grade 1-4: 75.7%
Asthenia, Expected (%) Grade 3-4: 12.2%
Constipation, Expected (%) Grade 1-4: 29.9%
Constipation, Expected (%) Grade 3-4: 2.0%
Diarrhea (Late), Expected (%) Grade 1-4: 87.8%
Diarrhea (Late), Expected (%) Grade 3-4: 30.6%
Nausea, Expected (%) Grade 1-4: 86.2%
Vomiting, Expected (%) Grade 1-4: 66.8%
Vomiting, Expected (%) Grade 3-4: 12.5%
Structure (SMILES): CCc1c2c(nc3ccc(OC(=O)N4CCC(N5CCCCC5)CC4)cc13)-c1cc3c(c(=O)n1C2)COC(=O)[C@]3(O)CC [Irinotecan, (4S)-4,11-diethyl-4-hydroxy-9-[(4-piperidino-piperidino)carbonyl-oxy]1H-pyranol-[3′,4′:6,7]indolizinol[1,2-b]quinoline-3,14-(4H,12H)dione]
